Entries after “also recorded” stand apart in the source; their conditions may differ.
Key:
[1] = tested on: central nervous system injury; assay: Treatment of a subject with central nervous system injury with inosine (Examples 5, 9, 13); type: in vivo
Protocol: A subject with central nervous system injury, is treated with an intravenous infusion of a solution of inosine (50 mM) and NaCl (0.15M) at a rate of 1 g/kg/day. […] A subject with central nervous system injury, is treated with a subcutaneous injection of a solution of inosine (50 mM) and NaCl (0.15M) at a rate of 1 g/kg/day. […] A subject with central nervous system injury is treated with intravenous infusion of a solution of inosine in a formulation of 0.1% sodium bicarbonate 70 mg/mL inosine, pH9.2. The 250 ml of the inosine formulation is infused over a two hour period. This procedure is repeated for 14 days.

stroke = assay: Treatment of a subject with an onset of stroke with inosine (Examples 6, 10); type: in vivo; conditions: inosine (50 mM) and NaCl (0.15M), 1 g/kg/day
Protocol: A subject with an onset of stroke, is treated with an intravenous infusion of a solution of inosine (50 mM) and NaCl (0.15M) at a rate of 1 g/kg/day. […] A subject with an onset of stroke, is treated with an subcutaneous injection of a solution of inosine (50 mM) and NaCl (0.15M) at a rate of 1 g/kg/day.

traumatic brain injury = assay: Treatment of a subject with a traumatic brain injury with inosine (Examples 8, 12); type: in vivo; conditions: inosine (50 mM) and NaCl (0.15M), 1 g/kg/day
Protocol: (§1) A subject with a traumatic brain injury, is treated with an intravenous infusion of a solution of inosine (50 mM) and NaCl (0.15M) at a rate of 1 g/kg/day. […] A subject with a traumatic brain injury, is treated with subcutaneous injection of a solution of inosine (50 mM) and NaCl (0.15M) at a rate of 1 g/kg/day.

[2] = tested on: rat hemisection model of spinal cord injury; assay: Rat dorsal hemisection model of spinal cord injury, BBB score of locomotor function; type: in vivo; conditions: approximately 2 mg/kg/hr
Protocol: This example considers intravenous infusion of inosine in rodent model of acute spinal cord injury. Rats were anesthetized and each was subjected to laminectomy in the thoracic region of the spinal cord, followed by dorsal hemisection of the spinal cord that included severance of the cortical spinal tract as a model of spinal cord injury (SCI). These rats were divided into two groups: one group was dosed by continuous intravenous infusion of 70 mg/mL (261 mM) inosine formulated in 0.1% sodium bicarbonate solution, pH approximately 9.2, for four weeks, and the other group was dosed by continuous intravenous infusion with 0.1% sodium bicarbonate vehicle control for four weeks. The infusion rate was 10 microliters per hour for inosine (approximately 2 mg/kg/hr) and vehicle dosing, and the infusions were started immediately after the SCI. In this regard it is noted that dosing at 2 mg/kg/hr represents a dose of about 48 mg/kg/day. In a 70 kg subject this is equivalent to about 3-4 g/day. Attention is drawn to daily doses from about 1 g/day to about 10 gm/day with attention being drawn to doses of about 2 g/day and about 5 day.
Rats were evaluated one day post-SCI to verify completeness of the lesion, and then weekly for functional status by assessment using the Basso-Beattie-Bresnahan (BBB) score of locomotor function as judged by hind-limb function and forelimb:hind-limb coordination. […]

[3] = Brain (medial prefrontal cortex) microdialysate inosine during intravenous inosine infusion in rats; type: in vivo, rat; conditions: for CNS microdialysate inosine, percent of baseline / CNS microdialysate inosine, maximal increase (percent of baseline) / time to maximal increase of CNS microdialysate inosine: rat
Protocol: (§2) Two groups of three rats were dosed intravenously with a total of 4 different concentrations of inosine and vehicle, providing within-subjects comparisons. Rats were anesthetized and each was surgically implanted above the medial prefrontal cortex (A-P +3.2 and M-L +1.0 from Bregma, D-V −2.0 from the skull surface) with an intracerebral guide cannula that was replaced after three days by a microdialysis probe. The microdialyses probes were continually flushed with artificial cerebrospinal fluid (aCSF). Catheters were inserted into the jugular vein for inosine dosing and into the femoral artery for blood collection.
(§3) Inosine formulated in aqueous bicarbonate buffer (pH 9.2) was administered by intravenous infusion for up to two hours to two groups of rats (N=3 per group) and the microdialysis probes were perfused with aCSF at a rate of 0.015 mL/minute. One group received nominal dose rates of 0 (vehicle), 100, and 300 mg/kg/hour, and the other group received nominal dose rates of 0, 500, and 700 mg/kg/hour. Each nominal infusion rate was 10 mL/kg/hour and was separated by a 2-day washout period.
(§4) Blood samples and brain microdialysates were collected prior to each dose to establish basal concentrations of inosine, and for a period of 2 hrs after each dose to determine the percent of change (increase, decrease, or none) relative to basal. Microdialysate and blood plasma inosine concentrations were measured using an LC/MS/MS assay. The lower limit of quantitation of the rat plasma analysis and the CNS microdialysate was 0.25 ng/mL.
The subjects were naïve, male, Sprague-Dawley rats procured for this study from Harlan Spraque Dawley, Inc. (Indianapolis, Ind.). All rats selected for surgeries were quarantined, inspected and deemed acceptable for surgery by technicians qualified to make this assessment. Intracerebral guide cannulae were surgically implanted above the medial prefrontal cortex (mPFC). Rats were provided with a single dose of analgesic immediately after surgery to alleviate discomfort. Animals were inspected frequently during post-surgical recovery. After 3 days, the stylet in the intracerebral guide cannula was replaced with a microdialysis probe.
(§5) All study subjects were dosed via JVC catheters without handling. Prior to collecting pre-dose microdialysates, glass vials were loaded with the appropriate drug solution and connected to an Empis system. All rats received the doses of inosine they were intended to receive, as the infusion rate was ˜50 μl/min over the 2 hr dosing period. Two days later, all rats received the doses of inosine they were intended to receive, as the infusion rate was ˜50 μl/min over the 2 hr dosing period. All rats then received reduced doses of inosine, as the infusion rat was reduced to ˜40 μl/min over a 2 hr dosing period.
(§6) Samples of CNS microdialysate (0.03 mL) and arterial blood (0.15 mL) were taken for analysis of inosine concentration before infusion, and at specified times after the start of the infusions (20, 40, 60, 80, and 120 minutes).
Changes in inosine concentrations are expressed as percent of baseline in order to compare changes in inosine concentrations between treatments.
(§7) Changes in inosine concentrations (percent of baseline) were determined by dividing a particular post-dose inosine concentration (ng/mL) by the average of 4 pre-dose (baseline) inosine concentrations (ng/mL) and multiplying this value by 100%. Where plasma inosine (μg/mL) values appeared to reach steady-state by inspection of the last three time points, approximately values for clearance (L/kg/hour) were obtained from the relationship, clearance=infusion rate (mg/kg/hour)/steady-state concentration (mg/L). Mean percent of baseline changes in inosine concentrations were plotted for each treatment condition.

[4] = Plasma inosine during 2-hr intravenous inosine infusion in rats (LC/MS/MS); type: in vivo, rat; conditions: for clearance: male, Sprague-Dawley, plasma, iv, infusion rate/steady-state concentration; for clearance / Plasma inosine concentration, maximal value / Steady-state mean plasma inosine level: rat
Protocol: as §2, §3, §4, §5, §6, §7

[5] = Inosine prototype formulations: approximate potency, solubility and precipitation; type: physicochemical
Protocol: A number of inosine formulations were examined. Preparatory steps were as follows:
Inosine protype formulations were prepared by adding inosine drug substance to tare vials containing about 3-5 mL of aqueous solutions containing various pharmaceutical excipients in various concentrations. […] Common I.V. solutions such as phosphate buffered saline, normal saline and 5% dextrose in water are noted.
Megulmine is known to function both as a solubilizing and alkalizing agent, thus precluding the need for a buffering species which would unfavorably increase ionic strength in the formulation.
The composition of each formulation is provided in Table I. The pH of the formulation is reported for those formulations for which it was tested.

spinal cord injury = assay: Treatment of a subject with a spinal cord injury with inosine (Examples 7, 11); type: in vivo; conditions: inosine (50 mM) and NaCl (0.15M), 1 g/kg/day
Protocol: as §1, with “with a spinal cord injury, is” for “with a traumatic brain injury, is”, “treated with an subcutaneous injection” for “treated with subcutaneous injection”

- CNS microdialysate inosine, percent of baseline ([3]; i.v. infusion 100 mg/kg/hour): 113-146%
- CNS microdialysate inosine, percent of baseline ([3]; i.v. infusion 300 mg/kg/hour): 96-116%
- CNS microdialysate inosine, maximal increase (percent of baseline) ([3]; i.v. infusion 500 mg/kg/hour): 526-632%
- time to maximal increase of CNS microdialysate inosine ([3]; i.v. infusion 500 mg/kg/hr): ≤ 45 min
- CNS microdialysate inosine, maximal increase (percent of baseline) ([3]; i.v. infusion 700 mg/kg/hour): 574-653%
- time to maximal increase of CNS microdialysate inosine ([3]; i.v. infusion 700 mg/kg/hr): ≤ 45 min
- inosine levels above background ([3]; rats, i.v., 160-200 mg/kg/2 hrs): approximately 170%
- inosine levels above background ([3]; rats, i.v., 480-600 mg/kg/2 hrs): approximately 170%
- interstitial inosine as compared with the baseline/predose concentrations ([3]; rats, i.v., about 800 to 1000 mg/kg over about two hours (Formulation 80 diluted to 50 mg/mL)): approximately 500%
- clearance ([4]; i.v. infusion 300 mg/kg/hour): 218 mL/min/kg
- clearance ([4]; i.v. infusion 500 mg/kg/hour): 257 mL/min/kg
- Plasma inosine concentration, maximal value ([4]; i.v. infusion 100 mg/kg/hr): ≤ 7.2 µg/mL
- Steady-state mean plasma inosine level ([4]; i.v. infusion 300 mg/kg/hour): 22.8 µg/mL
- Plasma inosine concentration, maximal value ([4]; i.v. infusion 300 mg/kg/hr): ≤ 26 µg/mL
- Steady-state mean plasma inosine level ([4]; i.v. infusion 500 mg/kg/hour): 32.4 µg/mL
- Plasma inosine concentration, maximal value ([4]; i.v. infusion 500 mg/kg/hr): ≤ 45 µg/mL
- Plasma inosine concentration, maximal value ([4]; i.v. infusion 700 mg/kg/hr): ≤ 146 µg/mL
- inosine plasma levels ([4]; rats, i.v., about 800 to 1000 mg/kg over about two hours): significant rise
- inosine solubility ([5]; high pH environments): greatly enhanced
- inosine solubility ([5]; higher concentrations of saline solutions): reduced solubility
Compound: OC[C@H]1O[C@@H](n2cnc3c(O)ncnc32)[C@H](O)[C@@H]1O [inosine]
- neurological deficit ([1]; Example 5: intravenous infusion, inosine (50 mM) and NaCl (0.15M), 1 g/kg/day): Amelioration of the neurological deficit
- neurological deficit ([1]; Example 9: subcutaneous injection, inosine (50 mM) and NaCl (0.15M), 1 g/kg/day): Amelioration of the neurological deficit
- neurological deficit ([1]; Example 13: intravenous infusion, 0.1% sodium bicarbonate 70 mg/mL inosine pH9.2, 250 ml over two hours, 14 days): Amelioration of the neurological deficit
- neurological deficit (stroke; Example 6: intravenous infusion): Amelioration of the neurological deficit
- neurological deficit (stroke; Example 10: subcutaneous injection): Amelioration of the neurological deficit
- neurological deficit (traumatic brain injury; Example 8: intravenous infusion): Amelioration of the neurological deficit
- neurological deficit (traumatic brain injury; Example 12: subcutaneous injection): Amelioration of the neurological deficit
- functional outcome ([2]; continuous i.v. infusion, four weeks, P<0.01 weeks one and two, P<0.001 weeks three and four vs. vehicle): improves functional outcome; also recorded: continual or sustained improvement
- BBB scores ([2]; three to four weeks post-SCI, continuous i.v. infusion 70 mg/mL, maximal score 21): near maximal possible values
- neurological deficit (spinal cord injury; Example 7: intravenous infusion): Amelioration of the neurological deficit
- neurological deficit (spinal cord injury; Example 11: subcutaneous injection): Amelioration of the neurological deficit

— patent US8133861B2, “Systemic purine administration: modulating axonal outgrowth of central nervous system neurons” (Alseres Pharmaceuticals, Inc., priority 2008, dated 2012)
